Here are results for 17 compounds from patent US20250084084A1, “Crystalline form of (2R)-2-(5-fluoro-2-methoxypyridin-4-yl)-1-[(2S)-7-methyl-6-(pyrimidin-2-yl)-3,4-dihydro-1H-spiro[1,8-naphthyridine-2,3-pyrrolidin]-1-yl]propan-1-one” (Pfizer Inc., priority 2020, published 2025).

α-melanocyte-stimulating hormone receptor (hMC4R), sequence (P32245 whole entry): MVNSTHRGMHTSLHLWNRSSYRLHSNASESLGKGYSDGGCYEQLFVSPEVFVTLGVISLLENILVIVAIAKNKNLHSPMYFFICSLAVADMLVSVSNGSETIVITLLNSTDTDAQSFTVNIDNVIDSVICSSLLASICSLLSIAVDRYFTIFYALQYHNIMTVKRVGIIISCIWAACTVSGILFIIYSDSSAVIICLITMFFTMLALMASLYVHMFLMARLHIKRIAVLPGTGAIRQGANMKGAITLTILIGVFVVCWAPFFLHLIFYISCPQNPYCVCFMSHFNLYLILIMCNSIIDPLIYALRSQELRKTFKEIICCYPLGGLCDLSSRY

This experiment has as its target α-melanocyte-stimulating hormone receptor (hMC4R) (Homo sapiens (Human), UniProt P32245). The experiment is described as follows: In vitro binding affinity assay using hMC4R (radioligand competition binding, [125I]-(Nle4, D-Phe7)-α-MSH). The settings on record: geometric mean, read-out: Ki (nM) geometric. In outline: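 Membranes from CHO cells stably expressing hMC4R (2 μg/well) incubated 2 h RT with [125I]-NDP-α-MSH and compound (300 nM-0.01 nM, 1% DMSO); 2 μM α-MSH defined nonspecific binding. Filtration and scintillation counting; Ki from IC50 via Cheng-Prusoff.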
By Ki is commonly meant a dissociation constant, usually derived from enzyme kinetics or from competition with a known ligand. On to `COc1cc([C@@H](C)C(=O)N2CC[C@@]3(CCc4cc(-c5cnc(C)cn5)c(C)nc4N3)C2)c(F)cn1` [Example 158, (2R)-2-(5-fluoro-2-methoxypyridin-4-yl)-1-[(2S)-7-methyl-6-(5-methylpyrazin-2-yl)-3,4-dihydro-1H-spiro[1,8-naphthyridine-2,3′-pyrrolidin]-1′-yl]propan-1-one], for which the Ki was 3.2 nM.
The same measure for `COc1cc([C@@H](C)C(=O)N2CC[C@@]3(CCc4cc(-c5ccc(OC(F)F)nc5)c(C)nc4N3)C2)c(F)cn1` [Example 159, (2R)-1-{(2S)-6-[6-(difluoromethoxy)pyridin-3-yl]-7-methyl-3,4-dihydro-1H-spiro[1,8-naphthyridine-2,3′-pyrrolidin]-1′-yl}-2-(5-fluoro-2-methoxypyridin-4-yl)propan-1-one]: 18 nM; for `COc1cc([C@@H](C)C(=O)N2CC[C@@]3(CCc4cc(-c5cc6onc(C)c6cc5C)c(C)nc4N3)C2)c(F)cn1` [Example 160, (2R)-1-[(2S)-6-(3,5-dimethyl-1,2-benzoxazol-6-yl)-7-methyl-3,4-dihydro-1H-spiro[1,8-naphthyridine-2,3′-pyrrolidin]-1′-yl]-2-(5-fluoro-2-methoxypyridin-4-yl)propan-1-one]: 200 nM.
For `COc1cc([C@@H](C)C(=O)N2CC[C@@]3(CCc4cc(-c5cccc(-c6nnc(C)o6)c5)c(C)nc4N3)C2)c(F)cn1` [Example 161, (2R)-2-(5-fluoro-2-methoxypyridin-4-yl)-1-{(2S)-7-methyl-6-[3-(5-methyl-1,3,4-oxadiazol-2-yl)phenyl]-3,4-dihydro-1H-spiro[1,8-naphthyridine-2,3′-pyrrolidin]-1′-yl}propan-1-one] the value was 47 nM.
For the compound `COc1cc([C@@H](C)C(=O)N2CC[C@@]3(CCc4cc(-c5nc(C(C)C)ns5)c(C)nc4N3)C2)c(F)cn1` [Example 162, (2R)-2-(5-fluoro-2-methoxypyridin-4-yl)-1-{(2S)-7-methyl-6-[3-(propan-2-yl)-1,2,4-thiadiazol-5-yl]-3,4-dihydro-1H-spiro[1,8-naphthyridine-2,3′-pyrrolidin]-1′-yl}propan-1-one], the Ki stood at 8.2 nM.
The same measure for `COc1cc([C@@H](C)C(=O)N2CC[C@@]3(CCc4cc(-c5nc(C)c(C)s5)c(C)nc4N3)C2)c(F)cn1` [Example 163, (2R)-1-[(2S)-6-(4,5-dimethyl-1,3-thiazol-2-yl)-7-methyl-3,4-dihydro-1H-spiro[1,8-naphthyridine-2,3′-pyrrolidin]-1′-yl]-2-(5-fluoro-2-methoxypyridin-4-yl)propan-1-one]: 2.8 nM.
For `COc1cc([C@@H](C)C(=O)N2CC[C@@]3(CCc4cc(-c5nccnc5C)c(C)nc4N3)C2)c(F)cn1` [Example 164, (2R)-2-(5-fluoro-2-methoxypyridin-4-yl)-1-[(2S)-7-methyl-6-(3-methylpyrazin-2-yl)-3,4-dihydro-1H-spiro[1,8-naphthyridine-2,3′-pyrrolidin]-1′-yl]propan-1-one] the value was 18 nM; for `COc1cc([C@@H](C)C(=O)N2CC[C@@]3(CCc4cc(-c5ccc6sc(C)nc6c5)c(C)nc4N3)C2)c(F)cn1` [Example 165, (2R)-2-(5-fluoro-2-methoxypyridin-4-yl)-1-[(2S)-7-methyl-6-(2-methyl-1,3-benzothiazol-5-yl)-3,4-dihydro-1H-spiro[1,8-naphthyridine-2,3′-pyrrolidin]-1′-yl]propan-1-one], 81 nM; for `COc1cc([C@@H](C)C(=O)N2CC[C@@]3(CCc4cc(-c5cc(C)ccn5)c(C)nc4N3)C2)c(F)cn1` [Example 166, (2R)-2-(5-fluoro-2-methoxypyridin-4-yl)-1-[(2S)-7-methyl-6-(4-methylpyridin-2-yl)-3,4-dihydro-1H-spiro[1,8-naphthyridine-2,3′-pyrrolidin]-1′-yl]propan-1-one], 8.2 nM.
For `COc1cc([C@@H](C)C(=O)N2CC[C@@]3(CCc4cc(-c5nccs5)c(C)nc4N3)C2)c(F)cn1` [Example 167, (2R)-2-(5-fluoro-2-methoxypyridin-4-yl)-1-[(2S)-7-methyl-6-(1,3-thiazol-2-yl)-3,4-dihydro-1H-spiro[1,8-naphthyridine-2,3′-pyrrolidin]-1′-yl]propan-1-one] the value was 5.4 nM; for `COc1cc([C@@H](C)C(=O)N2CC[C@@]3(CCc4cc(-c5nnc(N6CCCCC6)s5)c(C)nc4N3)C2)c(F)cn1` [Example 168, (2R)-2-(5-fluoro-2-methoxypyridin-4-yl)-1-{(2S)-7-methyl-6-[5-(piperidin-1-yl)-1,3,4-thiadiazol-2-yl]-3,4-dihydro-1H-spiro[1,8-naphthyridine-2,3′-pyrrolidin]-1′-yl}propan-1-one], 86 nM.
For the compound `COc1cc([C@@H](C)C(=O)N2CC[C@@]3(CCc4cc(-c5ccncc5)c(C)nc4N3)C2)c(F)cn1` [Example 169, (2R)-2-(5-fluoro-2-methoxypyridin-4-yl)-1-[(2S)-7-methyl-6-(pyridin-4-yl)-3,4-dihydro-1H-spiro[1,8-naphthyridine-2,3′-pyrrolidin]-1′-yl]propan-1-one], the Ki turned out to be 7.6 nM.
For `COc1cc([C@@H](C)C(=O)N2CC[C@@]3(CCc4cc(-c5cnc(C(F)(F)F)nc5)c(C)nc4N3)C2)c(F)cn1` [Example 170, (2R)-2-(5-fluoro-2-methoxypyridin-4-yl)-1-{(2S)-7-methyl-6-[2-(trifluoromethyl)pyrimidin-5-yl]-3,4-dihydro-1H-spiro[1,8-naphthyridine-2,3′-pyrrolidin]-1′-yl}propan-1-one] the value was 43 nM; for `COc1cc([C@@H](C)C(=O)N2CC[C@@]3(CCc4cc(-c5csc(C6CC6)n5)c(C)nc4N3)C2)c(F)cn1` [Example 171, (2R)-1-[(2S)-6-(2-cyclopropyl-1,3-thiazol-4-yl)-7-methyl-3,4-dihydro-1H-spiro[1,8-naphthyridine-2,3′-pyrrolidin]-1′-yl]-2-(5-fluoro-2-methoxypyridin-4-yl)propan-1-one], 3.6 nM; for `COc1cc([C@@H](C)C(=O)N2CC[C@@]3(CCc4cc(-c5cccc(-c6cnco6)c5)c(C)nc4N3)C2)c(F)cn1` [Example 173, (2R)-2-(5-fluoro-2-methoxypyridin-4-yl)-1-{(2S)-7-methyl-6-[3-(1,3-oxazol-5-yl)phenyl]-3,4-dihydro-1H-spiro[1,8-naphthyridine-2,3′-pyrrolidin]-1′-yl}propan-1-one], 85 nM.
As to `COc1cc([C@@H](C)C(=O)N2CC[C@@]3(CCc4cc(-c5ccc(C(F)F)nc5)c(C)nc4N3)C2)c(F)cn1` [Example 174, (2R)-1-{(2S)-6-[6-(difluoromethyl)pyridin-3-yl)-7-methyl-3,4-dihydro-1H-spiro[1,8-naphthyridine-2,3′-pyrrolidin]-1′-yl}-2-(5-fluoro-2-methoxypyridin-4-yl)propan-1-one], the Ki was found to be 26 nM.
For `COc1cc([C@@H](C)C(=O)N2CC[C@@]3(CCc4cc(-c5ccc(-c6noc(C)n6)cc5)c(C)nc4N3)C2)c(F)cn1` [Example 175, (2R)-2-(5-fluoro-2-methoxypyridin-4-yl)-1-{(2S)-7-methyl-6-[4-(5-methyl-1,2,4-oxadiazol-3-yl)phenyl]-3,4-dihydro-1H-spiro[1,8-naphthyridine-2,3′-pyrrolidin]-1′-yl}propan-1-one] the value was 45 nM.
